Molecules are shown by their SMILES.

For 15 compounds, IC50 and GI50 results are on record in patent US20260167619A2, “INDOLINE COMPOUNDS AND DERIVATIVES AS EGFR INHIBITORS” (BeOne Medicines I GmbH, priority 2020, published 2026).

Test [1] has as its target EGFR(Dell9_T790M_C797S) (aa 669-1210, in house) (Homo sapiens, UniProt P00533, T790M/C797S, form not given). In words: Biochemical EGFR inhibition assay (TR-FRET), Del19/T790M/C797S mutant. The note with it: ATP at Km, 15 min pre-incubation, 60 min reaction; read-out: Del_TM_CS (Km ATP) IC50. In short, it runs like this:
(§1)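 First the enzyme sat with compound for 15 minutes at room temperature, then ATP (Km level) and biotinylated poly-GT were added for a 60 min reaction. Stop solution with EDTA, anti-pTyr cryptate and streptavidin-XL665 followed for 1 h before TR-FRET reading.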

Test [2] concerns the target T1, EGFR (aa668-1210, Invitrogen) (Homo sapiens, UniProt P00533).
T1 construct: EGFR (aa668-1210, Invitrogen); purchased Invitrogen
Nature of the test: Biochemical EGFR inhibition assay (TR-FRET), wild-type EGFR. The note with it: ATP at Km, 15 min pre-incubation, 60 min reaction; read-out: WT (Km ATP) IC50. In short, it runs like this:
as §1
Background: Time-resolved FRET reads energy transfer from a long-lived donor to a nearby acceptor.

The target of another test is BaF3-Del_TM_CS cells (Homo sapiens, UniProt P00533, T790M/C797S, cells depend on it, form not given). In words: Cell antiproliferation assay (CellTiter-Glo), BaF3-Del_TM_CS. In kind it is cell-based. The settings on record: 48 h treatment, read-out: BaF3-Del_TM_CS IC50. In short, it runs like this: (§2)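 Cells exposed 48 h to 8 doses from 5-fold serial dilution (500× DMSO stocks from 5 mM), final 0.2% DMSO. Viability by CellTiter-Glo luminescence; IC50 from four-parameter fit of percent inhibition versus concentration.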
Chain of BaF3-Del_TM_CS cells (P00533 with tags, fused parts or gaps DEL746-750/T790M/C797S, form open): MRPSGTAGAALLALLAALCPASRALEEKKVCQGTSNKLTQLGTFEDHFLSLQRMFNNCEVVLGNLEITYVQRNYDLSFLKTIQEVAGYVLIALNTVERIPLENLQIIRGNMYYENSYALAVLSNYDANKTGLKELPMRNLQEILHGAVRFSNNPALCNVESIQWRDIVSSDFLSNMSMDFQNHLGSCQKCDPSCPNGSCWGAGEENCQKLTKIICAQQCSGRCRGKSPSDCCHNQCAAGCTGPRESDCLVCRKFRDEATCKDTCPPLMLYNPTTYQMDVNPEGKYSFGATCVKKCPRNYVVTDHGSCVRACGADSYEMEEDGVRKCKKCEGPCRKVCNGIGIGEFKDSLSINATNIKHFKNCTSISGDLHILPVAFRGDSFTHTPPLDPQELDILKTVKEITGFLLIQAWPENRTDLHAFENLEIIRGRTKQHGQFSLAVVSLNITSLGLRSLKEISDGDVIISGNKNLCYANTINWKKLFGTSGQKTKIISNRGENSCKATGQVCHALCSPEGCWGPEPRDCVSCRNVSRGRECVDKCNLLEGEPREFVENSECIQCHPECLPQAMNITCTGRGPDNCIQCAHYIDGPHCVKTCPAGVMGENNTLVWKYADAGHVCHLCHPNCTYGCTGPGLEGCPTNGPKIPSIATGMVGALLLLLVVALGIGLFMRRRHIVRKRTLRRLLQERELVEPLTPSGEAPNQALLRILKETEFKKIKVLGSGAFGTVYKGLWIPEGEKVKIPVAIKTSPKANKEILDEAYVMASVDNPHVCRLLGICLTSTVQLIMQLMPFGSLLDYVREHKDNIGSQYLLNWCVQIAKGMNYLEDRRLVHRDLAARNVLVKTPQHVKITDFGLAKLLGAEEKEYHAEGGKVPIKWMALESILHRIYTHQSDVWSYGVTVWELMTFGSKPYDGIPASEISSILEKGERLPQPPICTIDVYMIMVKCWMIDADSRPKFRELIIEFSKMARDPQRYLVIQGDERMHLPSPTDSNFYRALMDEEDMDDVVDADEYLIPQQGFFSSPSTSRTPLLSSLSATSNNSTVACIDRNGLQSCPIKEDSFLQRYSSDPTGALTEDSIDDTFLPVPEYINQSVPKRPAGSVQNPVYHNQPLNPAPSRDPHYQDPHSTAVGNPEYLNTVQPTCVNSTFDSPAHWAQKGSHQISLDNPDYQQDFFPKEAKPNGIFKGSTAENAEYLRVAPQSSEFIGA
A general note: Cellular ATP, detected with luciferase, serves as a proxy for viable cell number.

In the next test the target is BaF3-LR_TM_CS cells (Homo sapiens, UniProt P00533, T790M/C797S/L858R, cells depend on it). Nature of the test: Cell antiproliferation assay (CellTiter-Glo), BaF3-LR_TM_CS. In kind it is cell-based. The settings on record: 48 h treatment, read-out: BaF3-LR_TM_CS IC50. The method in brief:
as §2

Another test has as its target BaF3-WT cells (Homo sapiens, UniProt P00533). Nature of the test: Cell antiproliferation assay (CellTiter-Glo), BaF3-WT. In kind it is cell-based. The note with it: 48 h treatment, read-out: BaF3-WT IC50. The method in brief:
as §2

Test [3] has as its target T2, EGFR(L858R_T790M_C797S) (aa695-end, Invitrogen) (Homo sapiens, UniProt P00533, C797S/L858R/T790M).
T2 construct: purchased Invitrogen
In words: Biochemical EGFR inhibition assay (TR-FRET), L858R/T790M/C797S mutant. The note with it: ATP at Km, 15 min pre-incubation, 60 min reaction; read-out: LR_TM_CS (Km ATP) IC50. The method in brief: as §1

Chain of BaF3-WT cells (P00533 whole entry, change not shown): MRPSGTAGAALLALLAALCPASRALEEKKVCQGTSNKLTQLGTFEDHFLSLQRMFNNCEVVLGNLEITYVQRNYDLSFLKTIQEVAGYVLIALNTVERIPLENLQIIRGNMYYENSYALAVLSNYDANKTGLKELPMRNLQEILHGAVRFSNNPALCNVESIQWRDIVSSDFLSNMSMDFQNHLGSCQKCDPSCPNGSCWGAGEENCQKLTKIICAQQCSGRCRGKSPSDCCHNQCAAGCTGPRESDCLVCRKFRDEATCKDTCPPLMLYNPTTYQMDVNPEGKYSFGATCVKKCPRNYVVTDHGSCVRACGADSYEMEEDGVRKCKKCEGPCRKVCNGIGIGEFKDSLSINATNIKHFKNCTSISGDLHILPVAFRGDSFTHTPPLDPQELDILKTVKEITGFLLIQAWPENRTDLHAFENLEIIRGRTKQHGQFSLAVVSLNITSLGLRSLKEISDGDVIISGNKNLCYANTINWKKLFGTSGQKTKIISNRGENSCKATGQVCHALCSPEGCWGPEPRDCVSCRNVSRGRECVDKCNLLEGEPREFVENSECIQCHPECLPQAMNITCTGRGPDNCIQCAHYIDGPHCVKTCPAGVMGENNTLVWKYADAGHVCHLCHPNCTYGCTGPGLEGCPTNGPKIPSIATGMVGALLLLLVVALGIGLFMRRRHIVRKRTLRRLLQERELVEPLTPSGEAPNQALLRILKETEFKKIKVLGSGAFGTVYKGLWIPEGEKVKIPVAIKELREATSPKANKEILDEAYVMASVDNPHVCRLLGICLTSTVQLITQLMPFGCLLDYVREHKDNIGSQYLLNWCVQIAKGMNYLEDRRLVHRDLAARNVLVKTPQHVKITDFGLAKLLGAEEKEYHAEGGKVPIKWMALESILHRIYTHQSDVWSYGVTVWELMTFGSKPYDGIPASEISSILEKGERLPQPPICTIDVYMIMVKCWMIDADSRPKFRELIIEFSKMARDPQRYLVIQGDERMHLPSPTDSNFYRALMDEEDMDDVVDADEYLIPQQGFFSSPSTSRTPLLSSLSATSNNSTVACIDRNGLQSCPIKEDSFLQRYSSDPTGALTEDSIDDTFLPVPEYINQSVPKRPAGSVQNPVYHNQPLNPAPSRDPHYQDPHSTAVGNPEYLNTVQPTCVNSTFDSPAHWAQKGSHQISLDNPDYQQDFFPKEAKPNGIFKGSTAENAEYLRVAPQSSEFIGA
T1 sequence (P00533 668-1210): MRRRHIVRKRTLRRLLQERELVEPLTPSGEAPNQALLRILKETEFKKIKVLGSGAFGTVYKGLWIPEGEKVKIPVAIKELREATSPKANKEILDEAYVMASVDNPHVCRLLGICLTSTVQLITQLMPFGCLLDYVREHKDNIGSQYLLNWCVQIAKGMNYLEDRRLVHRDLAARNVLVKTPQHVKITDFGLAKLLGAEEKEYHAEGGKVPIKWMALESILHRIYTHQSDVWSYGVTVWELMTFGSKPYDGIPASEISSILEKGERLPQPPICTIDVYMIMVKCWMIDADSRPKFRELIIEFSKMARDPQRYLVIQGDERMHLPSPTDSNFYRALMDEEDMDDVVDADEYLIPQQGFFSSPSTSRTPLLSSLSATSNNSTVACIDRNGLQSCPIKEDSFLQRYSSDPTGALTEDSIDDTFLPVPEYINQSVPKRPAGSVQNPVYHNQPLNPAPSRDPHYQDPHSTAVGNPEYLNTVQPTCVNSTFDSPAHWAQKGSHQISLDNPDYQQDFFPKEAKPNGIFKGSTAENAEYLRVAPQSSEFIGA
Chain of BaF3-LR_TM_CS cells (P00533 whole entry T790M/C797S/L858R): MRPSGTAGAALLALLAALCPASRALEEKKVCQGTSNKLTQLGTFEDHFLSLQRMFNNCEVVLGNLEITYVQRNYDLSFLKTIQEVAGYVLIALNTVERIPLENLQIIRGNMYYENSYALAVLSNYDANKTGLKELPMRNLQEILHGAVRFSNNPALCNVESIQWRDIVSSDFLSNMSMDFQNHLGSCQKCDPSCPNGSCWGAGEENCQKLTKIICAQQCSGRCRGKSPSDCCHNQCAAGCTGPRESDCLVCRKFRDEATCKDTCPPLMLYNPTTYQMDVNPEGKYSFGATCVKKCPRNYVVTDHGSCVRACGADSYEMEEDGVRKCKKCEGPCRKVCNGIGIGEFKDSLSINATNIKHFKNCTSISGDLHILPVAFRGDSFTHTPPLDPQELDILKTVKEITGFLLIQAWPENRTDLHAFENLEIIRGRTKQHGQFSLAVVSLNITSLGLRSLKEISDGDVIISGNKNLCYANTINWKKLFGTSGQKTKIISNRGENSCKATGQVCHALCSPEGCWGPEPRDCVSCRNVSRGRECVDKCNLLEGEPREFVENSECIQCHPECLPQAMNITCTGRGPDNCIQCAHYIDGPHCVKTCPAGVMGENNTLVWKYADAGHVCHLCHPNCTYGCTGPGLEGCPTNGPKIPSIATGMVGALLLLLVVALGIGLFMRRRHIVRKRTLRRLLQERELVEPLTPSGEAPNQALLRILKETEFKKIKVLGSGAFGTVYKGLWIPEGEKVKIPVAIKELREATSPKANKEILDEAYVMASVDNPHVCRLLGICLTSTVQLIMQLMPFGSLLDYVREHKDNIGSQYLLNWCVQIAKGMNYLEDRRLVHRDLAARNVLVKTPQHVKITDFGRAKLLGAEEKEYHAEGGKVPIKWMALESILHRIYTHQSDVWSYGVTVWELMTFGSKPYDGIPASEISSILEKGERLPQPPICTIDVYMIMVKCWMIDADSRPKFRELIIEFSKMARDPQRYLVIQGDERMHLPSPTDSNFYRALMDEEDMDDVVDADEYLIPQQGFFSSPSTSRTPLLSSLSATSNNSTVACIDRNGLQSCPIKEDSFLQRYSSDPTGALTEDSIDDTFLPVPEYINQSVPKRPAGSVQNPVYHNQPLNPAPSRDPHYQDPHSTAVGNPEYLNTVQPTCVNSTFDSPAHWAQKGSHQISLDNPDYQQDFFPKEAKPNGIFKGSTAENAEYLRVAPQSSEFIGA
T2 sequence (P00533 695-1210 T790M/C797S/L858R): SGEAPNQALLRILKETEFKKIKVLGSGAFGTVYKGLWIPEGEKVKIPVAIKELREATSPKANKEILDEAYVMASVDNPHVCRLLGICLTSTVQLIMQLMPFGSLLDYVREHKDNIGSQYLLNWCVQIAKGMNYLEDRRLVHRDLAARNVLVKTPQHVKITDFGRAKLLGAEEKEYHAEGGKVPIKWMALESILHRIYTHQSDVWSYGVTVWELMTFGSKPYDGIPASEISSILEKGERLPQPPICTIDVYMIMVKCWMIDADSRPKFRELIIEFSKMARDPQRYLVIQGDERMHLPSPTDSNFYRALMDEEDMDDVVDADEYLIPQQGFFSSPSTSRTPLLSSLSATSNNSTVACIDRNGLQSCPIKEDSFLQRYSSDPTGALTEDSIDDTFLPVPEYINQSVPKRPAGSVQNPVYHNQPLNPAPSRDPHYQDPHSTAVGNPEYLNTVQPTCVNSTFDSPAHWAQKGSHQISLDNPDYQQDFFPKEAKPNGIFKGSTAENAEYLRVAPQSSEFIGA

The IC50 is the concentration at which inhibition is half-maximal. Consider `CCc1cc(Nc2ncc(Cl)c(Nc3cccc4c3N(S(C)(=O)=O)CC4)n2)c(OC)cc1N1CCC(N2CCN(C)CC2)CC1` [Example 41, 5-chloro-N^2-(5-ethyl-2-methoxy-4-(4-(4-methylpiperazin-1-yl)piperidin-1-yl)phenyl)-N^4-(1-(methylsulfonyl)indolin-7yl)pyrimidine-2,4-diamine], for which the IC50 in test [1] turned out to be 0.00051 µM; in test [2], 0.00081 µM; in test [3], 0.00067 µM. Moreover, the GI50 at BaF3-Del_TM_CS cells turned out to be 0.00606 µM; at BaF3-LR_TM_CS cells it was 0.0154 µM; at BaF3-WT cells, 0.61 µM.
`CN(C)C1CCN(c2ccc(Nc3ncc(Cl)c(Nc4cccc5c4N(S(C)(=O)=O)CC5)n3)c3c2CCO3)CC1` [Example 47, 5-chloro-N^2-(4-(4-(dimethylamino)piperidin-1-yl)-2,3-dihydrobenzofuran-7-yl)-N^4-(1-(methylsulfonyl)indolin-7-yl)pyrimidine-2,4-diamine]: the IC50 in test [1] came to 0.0003 µM; in test [2], 0.0038 µM; in test [3], 0.00085 µM. Besides, the values for the GI50 at BaF3-Del_TM_CS cells, at BaF3-LR_TM_CS cells and at BaF3-WT cells were 0.0123 µM, 0.0378 µM and 0.63 µM, respectively.
In the case of `CN(C)C1CCN(c2ccc(Nc3ncc(Br)c(Nc4cccc5c4N(S(C)(=O)=O)CC5)n3)c3c2CCO3)CC1` [Example 48, 5-bromo-N^2-(4-(4-(dimethylamino)piperidin-1-yl)-2,3-dihydrobenzofuran-7-yl)-N^4-(1-(methylsulfonyl)indolin-7-yl)pyrimidine-2,4-diamine], the figures for the IC50 in test [1], in test [2] and in test [3] were 0.00018 µM, 0.0044 µM and 0.0003 µM, respectively. Moreover, the GI50 on BaF3-Del_TM_CS cells came out at 0.00356 µM; at BaF3-LR_TM_CS cells it was 0.0305 µM; on BaF3-WT cells it was 0.361 µM.
With `CN1CCN(C2CCN(c3ccc(Nc4ncc(Cl)c(Nc5cccc6c5N(S(C)(=O)=O)CC6)n4)c4c3CCO4)CC2)CC1` [Example 49, 5-chloro-N^2-(4-(4-(4-methylpiperazin-1-yl)piperidin-1-yl)-2,3-dihydrobenzofuran-7-yl)-N^4-(1-(methylsulfonyl)indolin-7-yl)pyrimidine-2,4-diamine], the IC50 in test [1] is 0.00045 µM; in test [2], 0.0038 µM; in test [3], 0.00095 µM. The figures for the GI50 at BaF3-Del_TM_CS cells, on BaF3-LR_TM_CS cells and on BaF3-WT cells were 0.0193 µM, 0.0793 µM and 1.51 µM, respectively.
In the case of `CN1CCN(C2CCN(c3ccc(Nc4ncc(Br)c(Nc5cccc6c5N(S(C)(=O)=O)CC6)n4)c4c3CCO4)CC2)CC1` [Example 50, 5-bromo-N^2-(4-(4-(4-methylpiperazin-1-yl)piperidin-1-yl)-2,3-dihydrobenzofuran-7-yl)-N^4-(1-(methylsulfonyl)indolin-7-yl)pyrimidine-2,4-diamine], the results for the IC50 in test [1], in test [2] and in test [3] were 0.00063 µM, 0.014 µM and 0.001 µM, respectively. Moreover, the GI50 on BaF3-Del_TM_CS cells was found to be 0.019 µM; at BaF3-LR_TM_CS cells, 0.176 µM; on BaF3-WT cells, 2.73 µM.
Consider `CN(C)C1CCN(c2ccc(Nc3ncc(Cl)c(Nc4cccc5c4N(S(C)(=O)=O)CC5)n3)c3c2OCO3)CC1` [Example 51, 5-chloro-N2-(7-(4-(dimethylamino)piperidin-1-yl)benzo[d][1,3]dioxol-4-yl)-N4-(1-(methylsulfonyl)indolin-7-yl)pyrimidine-2,4-diamine], for which the IC50 in test [1] is 0.00019 µM; in test [2], 0.0042 µM; in test [3], 0.0008 µM. Also, the results for the GI50 on BaF3-Del_TM_CS cells, on BaF3-LR_TM_CS cells and at BaF3-WT cells were 0.0101 µM, 0.0359 µM and 0.235 µM, respectively.
On to `CN(C)C1CCN(c2ccc(Nc3ncc(Br)c(Nc4cccc5c4N(S(C)(=O)=O)CC5)n3)c3c2OCO3)CC1` [Example 52, 5-bromo-N^2-(7-(4-(dimethylamino)piperidin-1-yl)benzo[d][1,3]dioxol-4-yl)-N^4-(1-(methylsulfonyl)indolin-7-yl)pyrimidine-2,4-diamine], for which the IC50 in test [1] came to 0.00012 µM; in test [2] it was 0.0055 µM; in test [3], 0.00042 µM. Further, the GI50 at BaF3-Del_TM_CS cells was 0.0112 µM; at BaF3-LR_TM_CS cells, 0.0187 µM; at BaF3-WT cells it was 0.145 µM.
With `CN(C)C1CCN(c2ccc(Nc3ncc(Br)c(Nc4cccc5c4N(S(C)(=O)=O)CC5)n3)c3c2OCCO3)CC1` [Example 54, 5-bromo-N^2-(8-(4-(dimethylamino)piperidin-1-yl)-2,3-dihydrobenzo[b][1,4]dioxin-5-yl)-N^4-(1-(methylsulfonyl)indolin-7-yl)pyrimidine-2,4-diamine], the IC50 worked out at 0.00016 µM in test [1], 0.0048 µM in test [2] and 0.00025 µM in test [3]. The GI50 turned out to be 0.0186 µM at BaF3-Del_TM_CS cells, 0.0424 µM at BaF3-LR_TM_CS cells and 0.372 µM at BaF3-WT cells.
On to `COc1cc(N2CCC(N3CCN(C)CC3)CC2)ccc1Nc1nc(Nc2cccc3c2N(S(C)(=O)=O)CC3)c2[nH]ccc2n1` [Example 71, N^2-(2-methoxy-4-(4-(4-methylpiperazin-1-yl)piperidin-1-yl)phenyl)-N^4-(1-(methylsulfonyl)indolin-7-yl)-5H-pyrrolo[3,2-d]pyrimidine-2,4-diamine], for which the IC50 in test [1] stood at 0.133 µM; in test [2], 0.623 µM; in test [3], 0.143 µM. Besides, the GI50 was 0.92 µM at BaF3-Del_TM_CS cells, 1.47 µM at BaF3-LR_TM_CS cells and 2.21 µM at BaF3-WT cells.
Take `COc1cc(N2CCC(N3CCN(C)CC3)CC2)ccc1Nc1nc(Nc2cccc3c2N(S(C)(=O)=O)CC3)c2nc[nH]c2n1` [Example 72, N^2-(2-methoxy-4-(4-(4-methylpiperazin-1-yl)piperidin-1-yl)phenyl)-N^6-(1-(methylsulfonyl)indolin-7-yl)-9H-purine-2,6-diamine]: the IC50 stood at 0.0013 µM in test [1], 0.0031 µM in test [2] and 0.0014 µM in test [3]. Besides, the GI50 was 0.246 µM on BaF3-Del_TM_CS cells, 2.2 µM at BaF3-LR_TM_CS cells and 2.6 µM on BaF3-WT cells.
For the compound `COc1cc(N2CCC(N3CCN(C)CC3)CC2)ccc1Nc1nc(Nc2cccc3c2N(S(C)(=O)=O)CC3)c2c(Cl)c[nH]c2n1` [Example 73, 5-chloro-N^2-(2-methoxy-4-(4-(4-methylpiperazin-1-yl)piperidin-1-yl)phenyl)-N^4-(1-(methylsulfonyl)indolin-7-yl)-7H-pyrrolo[2,3-d]pyrimidine-2,4-diamine], the IC50 in test [1] is 0.0016 µM; in test [2] it was 0.0047 µM; in test [3], 0.00061 µM. The results for the GI50 at BaF3-Del_TM_CS cells, at BaF3-LR_TM_CS cells and at BaF3-WT cells were 0.0274 µM, 0.141 µM and 0.853 µM, respectively.
For `COc1cc(N2CCC(N3CCN(C)CC3)CC2)ccc1Nc1nc2c(c(Nc3cccc4c3N(S(C)(=O)=O)CC4)n1)CCC2` [Example 74, N^2-(2-methoxy-4-(4-(4-methylpiperazin-1-yl)piperidin-1-yl)phenyl)-N^4-(1-(methylsulfonyl)indolin-7-yl)-6,7-dihydro-5H-cyclopenta[d]pyrimidine-2,4-diamine], the IC50 in test [1] turned out to be 0.131 µM; in test [2] it was 0.525 µM; in test [3], 0.053 µM. In addition, the GI50 was 0.436 µM on BaF3-Del_TM_CS cells, 0.617 µM on BaF3-LR_TM_CS cells and 2.35 µM on BaF3-WT cells.
Regarding `COc1cc(N2CCC(N3CCN(C)CC3)CC2)ccc1Nc1nc(Nc2cccc3c2N(S(C)(=O)=O)CC3)c2sccc2n1` [Example 75, N^2-(2-methoxy-4-(4-(4-methylpiperazin-1-yl)piperidin-1-yl)phenyl)-N^4-(1-(methylsulfonyl)indolin-7-yl)thieno[3,2-d]pyrimidine-2,4-diamine], the values for the IC50 in test [1], in test [2] and in test [3] were 0.0088 µM, 0.148 µM and 0.0086 µM, respectively. The values for the GI50 on BaF3-Del_TM_CS cells, on BaF3-LR_TM_CS cells and on BaF3-WT cells were 0.349 µM, 0.459 µM and 1.2 µM, respectively.
As for `CCN1CCN(C2CCN(c3ccc(Nc4nc(Nc5cccc6c5N(S(C)(=O)=O)CC6)c5cn[nH]c5n4)cc3F)CC2)CC1` [Example 76, N^6-(4-(4-(4-ethylpiperazin-1-yl)piperidin-1-yl)-3-fluorophenyl)-N^4-(1-(methylsulfonyl)indolin-7-yl)-1H-pyrazolo[3,4-d]pyrimidine-4,6-diamine], the IC50 in test [1] is 0.00088 µM; in test [2], 0.0006 µM; in test [3] it was 0.0013 µM. Further, the GI50 at BaF3-Del_TM_CS cells was 0.0905 µM; at BaF3-LR_TM_CS cells it was 0.35 µM; at BaF3-WT cells it was 0.987 µM.
For the compound `CCN1CCN(C2CCN(c3ccc(Nc4nc(Nc5cccc6c5N(S(C)(=O)=O)CC6)c5cc[nH]c5n4)cc3F)CC2)CC1` [Example 77, N^2-(4-(4-(4-ethylpiperazin-1-yl)piperidin-1-yl)-3-fluorophenyl)-N^4-(1-(methylsulfonyl)indolin-7-yl)-7H-pyrrolo[2,3-d]pyrimidine-2,4-diamine], the IC50 in test [1] worked out at 0.00033 µM; in test [2], 0.018 µM; in test [3], 0.00029 µM. The GI50 amounted to 0.0083 µM at BaF3-Del_TM_CS cells, 0.062 µM at BaF3-LR_TM_CS cells and 0.388 µM on BaF3-WT cells.
